# Results taken from patent US11566022B2, “3-(5-methoxy-1-oxoisoindolin-2-yl)piperidine-2,6-dione derivatives and uses thereof” (NOVARTIS AG, priority 2019, dated 2023).
# Molecular target: HiBit-WIZ fusion protein (Homo sapiens, UniProt O95785+Q96SW2)
# Test: Quantification of WIZ protein levels in HiBit tag fusion protein assay (WIZ HiBit assay in 293T cells)
# Type: cell-based
# Design: Dmax: dose or concentration left out as unconfirmed
# Conditions: for Dmax / remaining activity at up to 25 µM: HEK-293T, 293T cells; for Dmax: 100 minus Amax, read-out: % degradation of WIZ (100-Amax); for remaining activity at up to 25 µM: DMSO-normalized, curve-fitted percentage of WIZ-HiBit remaining at 25 uM, read-out: WIZ Amax; for DC50: WIZ HiBit assay in 293T cells, 10-point, 5-fold dose response, highest concentration 25 μM, about 18 hours, read-out: WIZ AC50
# Sequence of HiBit-WIZ fusion protein (O95785 whole entry, the tested form may be a part): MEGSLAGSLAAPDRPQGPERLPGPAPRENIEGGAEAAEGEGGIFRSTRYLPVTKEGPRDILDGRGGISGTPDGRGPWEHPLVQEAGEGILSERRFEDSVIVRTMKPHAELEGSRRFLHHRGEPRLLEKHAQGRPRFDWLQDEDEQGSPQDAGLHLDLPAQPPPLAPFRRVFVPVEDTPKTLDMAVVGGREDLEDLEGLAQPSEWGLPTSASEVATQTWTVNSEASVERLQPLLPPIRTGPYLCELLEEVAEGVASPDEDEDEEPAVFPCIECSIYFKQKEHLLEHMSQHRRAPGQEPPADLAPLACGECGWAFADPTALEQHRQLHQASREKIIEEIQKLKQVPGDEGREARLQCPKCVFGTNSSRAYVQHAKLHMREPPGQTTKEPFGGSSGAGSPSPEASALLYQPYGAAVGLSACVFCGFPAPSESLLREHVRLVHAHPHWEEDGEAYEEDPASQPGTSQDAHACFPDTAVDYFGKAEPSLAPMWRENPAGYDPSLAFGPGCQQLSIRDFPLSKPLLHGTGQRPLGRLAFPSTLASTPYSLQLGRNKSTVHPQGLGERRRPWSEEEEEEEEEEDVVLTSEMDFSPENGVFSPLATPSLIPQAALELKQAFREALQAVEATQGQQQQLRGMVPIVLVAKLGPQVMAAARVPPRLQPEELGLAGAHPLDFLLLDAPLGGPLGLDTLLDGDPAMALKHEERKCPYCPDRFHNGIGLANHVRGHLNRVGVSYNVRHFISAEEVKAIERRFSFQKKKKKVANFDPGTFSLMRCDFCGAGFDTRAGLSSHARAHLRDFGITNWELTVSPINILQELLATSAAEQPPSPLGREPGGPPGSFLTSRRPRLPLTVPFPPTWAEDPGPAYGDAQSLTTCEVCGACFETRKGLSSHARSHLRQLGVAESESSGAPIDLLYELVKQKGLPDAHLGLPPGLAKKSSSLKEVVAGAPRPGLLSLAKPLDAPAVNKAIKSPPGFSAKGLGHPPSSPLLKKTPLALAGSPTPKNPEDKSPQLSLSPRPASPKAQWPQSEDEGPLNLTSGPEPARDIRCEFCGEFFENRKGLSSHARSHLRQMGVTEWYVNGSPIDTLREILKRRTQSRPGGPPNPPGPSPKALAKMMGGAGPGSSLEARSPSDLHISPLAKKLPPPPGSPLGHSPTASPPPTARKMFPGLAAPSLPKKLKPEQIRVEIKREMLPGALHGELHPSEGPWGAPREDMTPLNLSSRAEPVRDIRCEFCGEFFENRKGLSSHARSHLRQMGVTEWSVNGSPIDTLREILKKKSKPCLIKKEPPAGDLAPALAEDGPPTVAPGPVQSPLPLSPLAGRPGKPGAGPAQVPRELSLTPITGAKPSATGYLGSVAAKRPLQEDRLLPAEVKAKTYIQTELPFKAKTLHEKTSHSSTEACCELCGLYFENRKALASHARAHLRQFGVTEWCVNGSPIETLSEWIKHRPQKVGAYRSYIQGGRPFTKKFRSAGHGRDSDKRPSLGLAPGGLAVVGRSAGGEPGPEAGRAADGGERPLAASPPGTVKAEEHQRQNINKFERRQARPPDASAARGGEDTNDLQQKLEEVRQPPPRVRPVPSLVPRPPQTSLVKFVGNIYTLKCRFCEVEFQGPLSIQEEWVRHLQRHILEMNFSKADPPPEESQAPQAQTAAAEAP
# Sequence of HiBit-WIZ fusion protein (Q96SW2 whole entry, the tested form may be a part): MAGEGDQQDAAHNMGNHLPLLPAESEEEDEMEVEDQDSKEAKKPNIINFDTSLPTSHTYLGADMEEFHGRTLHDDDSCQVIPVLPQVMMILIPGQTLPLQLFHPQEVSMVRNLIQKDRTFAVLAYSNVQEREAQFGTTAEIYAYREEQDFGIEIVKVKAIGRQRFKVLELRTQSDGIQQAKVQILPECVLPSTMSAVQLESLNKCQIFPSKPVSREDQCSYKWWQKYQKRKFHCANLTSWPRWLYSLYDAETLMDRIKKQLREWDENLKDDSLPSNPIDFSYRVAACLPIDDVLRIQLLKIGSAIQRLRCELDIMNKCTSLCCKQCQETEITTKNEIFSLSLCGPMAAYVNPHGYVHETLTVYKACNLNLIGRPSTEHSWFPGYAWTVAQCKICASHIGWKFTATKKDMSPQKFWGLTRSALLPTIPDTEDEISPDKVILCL
# Sequence of HiBit-WIZ fusion protein (Q16531 whole entry partner, the tested form may be a part): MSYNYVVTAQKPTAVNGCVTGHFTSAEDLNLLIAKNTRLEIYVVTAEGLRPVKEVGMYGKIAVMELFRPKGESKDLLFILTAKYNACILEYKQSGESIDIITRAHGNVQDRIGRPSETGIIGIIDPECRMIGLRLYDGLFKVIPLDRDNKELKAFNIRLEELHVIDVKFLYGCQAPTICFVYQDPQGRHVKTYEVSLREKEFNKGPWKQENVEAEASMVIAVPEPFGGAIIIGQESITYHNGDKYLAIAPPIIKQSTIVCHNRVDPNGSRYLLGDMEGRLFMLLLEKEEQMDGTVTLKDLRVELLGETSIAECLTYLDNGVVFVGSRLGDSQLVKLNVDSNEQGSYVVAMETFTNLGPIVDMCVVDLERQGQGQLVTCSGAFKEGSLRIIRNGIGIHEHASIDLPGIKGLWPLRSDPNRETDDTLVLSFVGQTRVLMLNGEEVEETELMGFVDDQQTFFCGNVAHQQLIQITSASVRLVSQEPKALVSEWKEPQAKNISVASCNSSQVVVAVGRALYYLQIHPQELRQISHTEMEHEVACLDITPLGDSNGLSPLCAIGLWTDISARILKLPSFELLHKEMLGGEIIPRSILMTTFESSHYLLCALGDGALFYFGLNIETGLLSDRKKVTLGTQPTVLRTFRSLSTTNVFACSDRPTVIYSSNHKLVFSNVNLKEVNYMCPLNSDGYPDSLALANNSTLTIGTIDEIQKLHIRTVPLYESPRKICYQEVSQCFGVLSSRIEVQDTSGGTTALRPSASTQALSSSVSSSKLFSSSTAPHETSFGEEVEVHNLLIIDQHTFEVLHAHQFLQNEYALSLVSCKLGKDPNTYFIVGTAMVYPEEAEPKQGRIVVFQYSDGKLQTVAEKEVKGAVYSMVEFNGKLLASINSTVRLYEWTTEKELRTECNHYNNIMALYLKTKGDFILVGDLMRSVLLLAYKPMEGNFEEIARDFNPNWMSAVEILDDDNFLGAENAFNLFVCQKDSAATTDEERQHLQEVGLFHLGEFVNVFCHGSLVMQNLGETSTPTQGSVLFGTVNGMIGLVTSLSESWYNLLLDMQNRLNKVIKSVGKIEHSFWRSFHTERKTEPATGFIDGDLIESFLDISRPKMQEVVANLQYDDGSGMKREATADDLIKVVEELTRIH
SMILES,Dmax [%],remaining activity at up to 25 µM [%],DC50 [µM]
"CCN1CCOC[C@H]1COc1ccc2c(c1)CN(C1CCC(=O)NC1=O)C2=O (stereo partly drawn) [Compound I-64, 3-(5-(((S)-4-ethylmorpholin-3-yl)methoxy)-1-oxoisoindolin-2-yl)piperidine-2,6-dione]",21.5,78.5,> 25
O=C1CCC(N2Cc3cc(OC[C@@H]4CCCCN4C(=O)c4cccc(S(=O)(=O)O)c4)ccc3C2=O)C(=O)N1 (stereo partly drawn) [Compound I-72a],11.2,88.8,> 25
O=C1CCC(N2Cc3cc(OC[C@@H]4CCCCN4C(=O)c4ccc(Cl)c(I)c4)ccc3C2=O)C(=O)N1 (stereo partly drawn) [Compound I-72ad],52.8,47.2,17.4
O=C1CCC(N2Cc3cc(OC[C@@H]4CCCCN4C(=O)c4cccc(N5CCOCC5)n4)ccc3C2=O)C(=O)N1 (stereo partly drawn) [Compound I-72ae],14.7,85.3,> 25
O=C1CCC(N2Cc3cc(OC[C@@H]4CCCCN4C(=O)Cc4cc[nH]n4)ccc3C2=O)C(=O)N1 (stereo partly drawn) [Compound I-72af],7.7,92.3,> 25
CC(Oc1ccccc1Cl)C(=O)N1CCCC[C@H]1COc1ccc2c(c1)CN(C1CCC(=O)NC1=O)C2=O (stereo partly drawn) [Compound I-72ag],5.4,94.6,> 25
CCc1ocnc1C(=O)N1CCCC[C@H]1COc1ccc2c(c1)CN(C1CCC(=O)NC1=O)C2=O (stereo partly drawn) [Compound I-72ah],22.9,77.1,> 25
COc1ccc(-c2cc(C(=O)N3CCCC[C@H]3COc3ccc4c(c3)CN(C3CCC(=O)NC3=O)C4=O)[nH]n2)cc1 (stereo partly drawn) [Compound I-72ai],41.6,58.4,> 25
O=C1CCC(N2Cc3cc(OC[C@@H]4CCCCN4C(=O)c4cc(-c5ccc(Br)cc5)on4)ccc3C2=O)C(=O)N1 (stereo partly drawn) [Compound I-72ak],78.9,21.1,0.686
O=C1CCC(N2Cc3cc(OC[C@@H]4CCCCN4C(=O)c4ccc(N5CCOCC5)cc4)ccc3C2=O)C(=O)N1 (stereo partly drawn) [Compound I-72an],53.8,46.2,13.8
Cn1ccc(C(=O)N2CCCC[C@H]2COc2ccc3c(c2)CN(C2CCC(=O)NC2=O)C3=O)cc1=O (stereo partly drawn) [Compound I-72ao],8.3,91.7,> 25
Cc1noc(-c2ccc(C(=O)N3CCCC[C@H]3COc3ccc4c(c3)CN(C3CCC(=O)NC3=O)C4=O)cc2)n1 (stereo partly drawn) [Compound I-72ar],71.8,28.2,2.57
CCCc1cc(C(=O)N2CCCC[C@H]2COc2ccc3c(c2)CN(C2CCC(=O)NC2=O)C3=O)no1 (stereo partly drawn) [Compound I-72au],39.9,60.1,> 25
O=C1CCC(N2Cc3cc(OC[C@@H]4CCCCN4C(=O)c4cccc(N5CCCCC5)n4)ccc3C2=O)C(=O)N1 (stereo partly drawn) [Compound I-72av],24.3,75.7,> 25
CCCCc1cnc(C(=O)N2CCCC[C@H]2COc2ccc3c(c2)CN(C2CCC(=O)NC2=O)C3=O)nc1OC (stereo partly drawn) [Compound I-72aw],60.4,39.6,8.52
CCc1cncc(C(=O)N2CCCC[C@H]2COc2ccc3c(c2)CN(C2CCC(=O)NC2=O)C3=O)c1 (stereo partly drawn) [Compound I-72ay],17.6,82.4,> 25
COc1ccncc1C(=O)N1CCCC[C@H]1COc1ccc2c(c1)CN(C1CCC(=O)NC1=O)C2=O (stereo partly drawn) [Compound I-72bc],3,97,> 25
CC(C)(C#N)c1cc(C(=O)N2CCCC[C@H]2COc2ccc3c(c2)CN(C2CCC(=O)NC2=O)C3=O)ccn1 (stereo partly drawn) [Compound I-72be],11.8,88.2,> 25
O=C1CCC(N2Cc3cc(OC[C@@H]4CCCCN4C(=O)c4cccc(Cn5cncn5)c4)ccc3C2=O)C(=O)N1 (stereo partly drawn) [Compound I-72bi],3.9,96.1,> 25
Cc1c(-c2ccccc2)n[nH]c1C(=O)N1CCCC[C@H]1COc1ccc2c(c1)CN(C1CCC(=O)NC1=O)C2=O (stereo partly drawn) [Compound I-72by],52,48,19.8
CC(C)(C)Cc1cc(C(=O)N2CCCC[C@H]2COc2ccc3c(c2)CN(C2CCC(=O)NC2=O)C3=O)no1 (stereo partly drawn) [Compound I-72bz],46.7,53.3,> 25
O=C1CCC(N2Cc3cc(OC[C@@H]4CCCCN4C(=O)c4cnnn4-c4ccccc4)ccc3C2=O)C(=O)N1 (stereo partly drawn) [Compound I-72c],20.6,79.4,> 25
O=C1CCC(N2Cc3cc(OC[C@@H]4CCCCN4C(=O)CCN4CCOCC4)ccc3C2=O)C(=O)N1 (stereo partly drawn) [Compound I-72ca],10.2,89.8,> 25

SMILES,Dmax [%],remaining activity at up to 25 µM [%],DC50 [µM]
CC(C)c1cc(C(=O)N2CCCC[C@H]2COc2ccc3c(c2)CN(C2CCC(=O)NC2=O)C3=O)no1 (stereo partly drawn) [Compound I-72cf],35,65,> 25
Cc1n[nH]c(CC(=O)N2CCCC[C@H]2COc2ccc3c(c2)CN(C2CCC(=O)NC2=O)C3=O)n1 (stereo partly drawn) [Compound I-72cg],2.2,97.8,> 25
CCN(CC)CC(=O)N1CCCC[C@H]1COc1ccc2c(c1)CN(C1CCC(=O)NC1=O)C2=O (stereo partly drawn) [Compound I-72cp],12.1,87.9,> 25
COc1cccc2c(C(=O)N3CCCC[C@H]3COc3ccc4c(c3)CN(C3CCC(=O)NC3=O)C4=O)c[nH]c12 (stereo partly drawn) [Compound I-72cq],31.1,68.9,> 25
O=C1CCC(N2Cc3cc(OC[C@@H]4CCCCN4C(=O)[C@H]4CCN(Cc5ccccc5)C4)ccc3C2=O)C(=O)N1 (stereo partly drawn) [Compound I-72cy],15.2,84.8,> 25
COc1ccc(C(=O)N2CCCC[C@H]2COc2ccc3c(c2)CN(C2CCC(=O)NC2=O)C3=O)cc1OCc1ccccc1 (stereo partly drawn) [Compound I-72d],71.6,28.4,1.9
CN1CCCC1C(=O)N1CCCC[C@@H]1COc1ccc2c(c1)CN(C1CCC(=O)NC1=O)C2=O (stereo partly drawn) [Compound I-72dd],19.5,80.5,> 25
CC(C)n1cc(C(=O)N2CCCC[C@H]2COc2ccc3c(c2)CN(C2CCC(=O)NC2=O)C3=O)cn1 (stereo partly drawn) [Compound I-72dg],21.1,78.9,> 25
O=C1CCC(N2Cc3cc(OC[C@@H]4CCCCN4C(=O)C=C4CCCCC4)ccc3C2=O)C(=O)N1 (stereo partly drawn) [Compound I-72dm],11.5,88.5,> 25
C[C@H]1CC[C@H](CC(=O)N2CCCC[C@H]2COc2ccc3c(c2)CN(C2CCC(=O)NC2=O)C3=O)CC1 (stereo partly drawn) [Compound I-72do],23.3,76.7,> 25
CC(C)c1cc(C(=O)N2CCCC[C@H]2COc2ccc3c(c2)CN(C2CCC(=O)NC2=O)C3=O)on1 (stereo partly drawn) [Compound I-72dp],30.5,69.5,> 25
O=C1CCC(N2Cc3cc(OC[C@@H]4CCCCN4C(=O)c4ncn(-c5ccccc5)n4)ccc3C2=O)C(=O)N1 (stereo partly drawn) [Compound I-72dt],47.2,52.8,> 25
O=C1CCC(N2Cc3cc(OC[C@@H]4CCCCN4C(=O)c4csc(-c5ccccc5)n4)ccc3C2=O)C(=O)N1 (stereo partly drawn) [Compound I-72du],23.6,76.4,> 25
O=C1CCC(N2Cc3cc(OC[C@@H]4CCCCN4C(=O)c4ccccc4OC(F)(F)F)ccc3C2=O)C(=O)N1 (stereo partly drawn) [Compound I-72dv],13.3,86.7,> 25
O=C1CCC(N2Cc3cc(OC[C@@H]4CCCCN4C(=O)c4csc(N5CCOCC5)n4)ccc3C2=O)C(=O)N1 (stereo partly drawn) [Compound I-72e],17.1,82.9,> 25
O=C1CCC(N2Cc3cc(OC[C@@H]4CCCCN4C(=O)[C@@H]4CCC(=O)N4Cc4ccccc4)ccc3C2=O)C(=O)N1 (stereo partly drawn) [Compound I-72ed],4.6,95.4,> 25
COc1c(F)cc(C(=O)N2CCCC[C@H]2COc2ccc3c(c2)CN(C2CCC(=O)NC2=O)C3=O)cc1F (stereo partly drawn) [Compound I-72eg],72.1,27.9,2.25
CCc1cc(C(=O)N2CCCC[C@H]2COc2ccc3c(c2)CN(C2CCC(=O)NC2=O)C3=O)on1 (stereo partly drawn) [Compound I-72ek],21,79,> 25
O=C1CCC(N2Cc3cc(OC[C@@H]4CCCCN4C(=O)CCC(=O)N4CCOCC4)ccc3C2=O)C(=O)N1 (stereo partly drawn) [Compound I-72eo],4.8,95.2,> 25
Cc1cc(-c2onc(C)c2C(=O)N2CCCC[C@H]2COc2ccc3c(c2)CN(C2CCC(=O)NC2=O)C3=O)no1 (stereo partly drawn) [Compound I-72ep],77.8,22.2,1.35
CC#CCCOc1ccc(C(=O)N2CCCC[C@H]2COc2ccc3c(c2)CN(C2CCC(=O)NC2=O)C3=O)cc1 (stereo partly drawn) [Compound I-72ew],54.9,45.1,14.6
CC(C)n1nccc1C(=O)N1CCCC[C@H]1COc1ccc2c(c1)CN(C1CCC(=O)NC1=O)C2=O (stereo partly drawn) [Compound I-72ez],0,100,> 25
